Our source for the IC50 values is patent publication US20250019377A1 (JACOBIO PHARMACEUTICALS CO., LTD, priority 2021, published 2025).

Molecules are shown by their SMILES.

The target of test [1] is T1, K-Ras G12V (Homo sapiens, UniProt P01116, G12V). Briefly: SOS1 catalyzed nucleotide exchange assay (GDP form K-Ras), K-Ras G12V. As to conditions: read-out: K-Ras G12V GDP Biochemical Activity (IC50).
The target of test [2] is T2, K-Ras WT (Homo sapiens, UniProt P01116). Briefly: SOS1 catalyzed nucleotide exchange assay (GDP form K-Ras), K-Ras WT. As to conditions: read-out: K-Ras WT GDP Biochemical Activity (IC50).
T2 sequence (P01116 1-169 isoform P01116-2): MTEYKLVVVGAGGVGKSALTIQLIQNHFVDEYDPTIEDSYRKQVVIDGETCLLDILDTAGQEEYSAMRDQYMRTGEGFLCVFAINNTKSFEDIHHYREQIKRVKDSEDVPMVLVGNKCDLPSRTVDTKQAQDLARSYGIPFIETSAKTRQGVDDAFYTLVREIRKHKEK
Test [3] concerns p-ERK in AGS cells (K-Ras G12D). Briefly: Phospho-ERK1/2(THR202/TYR204) HTRF assay, AGS. The class given is cell-based. The conditions noted are these: 2 hours incubation. On the technique in general: Time-resolved FRET reads energy transfer from a long-lived donor to a nearby acceptor.
Test [4] deals with p-ERK in SW620 cells (K-Ras G12V). The test is described as follows: Phospho-ERK1/2(THR202/TYR204) HTRF assay, SW620. The class given is cell-based. The conditions noted are these: 2 hours incubation.
Test [5] deals with AGS cells (K-Ras G12D). The test is described as follows: 2D cell growth inhibition assay, AGS. The conditions noted are these: 6 days, absolute IC50. Format: cell-based.
For test [6], the system named is AsPC-1 cells (K-Ras G12D). Briefly: 2D cell growth inhibition assay, AsPC-1. Format: cell-based. As to conditions: AsPC-1, K-Ras G12D, 6 days, absolute IC50.
Test [7] concerns SW620 cells (K-Ras G12V). Briefly: 2D cell growth inhibition assay, SW620. The class given is cell-based. As to conditions: 6 days, absolute IC50.
The target in test [8] is T1, K-Ras G12V. The test is described as follows: biochemical.
In test [9] the target is T2, K-Ras WT. The test is described as follows: biochemical.

T1 sequence (P01116 1-169 isoform P01116-2 G12V): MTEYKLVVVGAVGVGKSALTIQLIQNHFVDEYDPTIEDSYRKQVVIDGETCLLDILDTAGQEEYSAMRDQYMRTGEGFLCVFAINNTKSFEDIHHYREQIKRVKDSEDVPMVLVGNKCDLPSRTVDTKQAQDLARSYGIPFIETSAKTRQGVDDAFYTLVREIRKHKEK

By IC50 is commonly meant the concentration at which inhibition is half-maximal. Turning to `C#Cc1c(F)ccc2cc(O)cc(-c3ncc4c(N5CC(C)COCC5C)nc(OC[C@@]56CCCN5C[C@H](F)C6)nc4c3F)c12` (stereo partly drawn) [Compound 27, 4-(4-(3,6-dimethyl-1,4-oxazepan-4-yl)-8-fluoro-2-(((2R,7aS)-2-fluorotetrahydro-1H-pyrrolizin-7a(5H)-yl)methoxy)pyrido[4,3-d]pyrimidin-7-yl)-5-ethynyl-6-fluoronaphthalen-2-ol], the IC50 in test [1] came to 8.13 nM; in [2], 9.51 nM; in test [3] (Homo sapiens, 2 h), 65.1 nM; in test [4] (Homo sapiens, SW-620, 2 h) it was 144 nM; in test [5] (Homo sapiens, 144 h), 216 nM; in [6] (Homo sapiens, ASPC1, 144 h), 904 nM. For the same molecule, the IC50 was determined as 90.7 nM in [7] (Homo sapiens, SW-620, 144 h); 720 nM in [8]; 235 nM in [9].
Regarding `C#Cc1c(F)ccc2cc(O)cc(-c3ncc4c(N5CCCO[C@@H](CC#N)C5)nc(OC[C@@]56CCCN5C[C@H](F)C6)nc4c3F)c12` (single isomer, unassigned) [Compound 15B], the IC50 was found to be 0.873 nM in [1]; 1.4 nM in test [2]; 13.9 nM in test [3] (Homo sapiens, 2 h); 30.1 nM in [4] (Homo sapiens, SW-620, 2 h); 30.4 nM in test [5] (Homo sapiens, 144 h); 465 nM in [6] (Homo sapiens, ASPC1, 144 h). Besides, the IC50 in test [7] (Homo sapiens, SW-620, 144 h) is 59.6 nM; in test [8] it was 331 nM; in test [9], 173 nM.
Take `C#Cc1c(F)ccc2cc(O)cc(-c3ncc4c(N5CCCOCC5)nc(OCC56CCCN5C[C@](C)(F)C6)nc4c3F)c12` (single isomer, unassigned) [Compound 32B]: the IC50 is 1.97 nM in [1]; 3.12 nM in test [2]; 12.1 nM in [3] (Homo sapiens, 2 h); 17.1 nM in test [4] (Homo sapiens, SW-620, 2 h); 18.6 nM in test [5] (Homo sapiens, 144 h); 135 nM in test [6] (Homo sapiens, ASPC1, 144 h). Also, the IC50 in test [7] (Homo sapiens, SW-620, 144 h) is 27.9 nM; in test [8], 69.7 nM; in test [9] it was 77.4 nM.
With `C#Cc1c(F)ccc2cc(O)cc(-c3ncc4c(N5CC6COC(C6)C5)nc(OC[C@@]56CCCN5C[C@H](F)C6)nc4c3F)c12` (single isomer, unassigned) [Compound 84A, 4-(4-((1R,5S)-6-oxa-3-azabicyclo[3.2.1]octan-3-yl)-8-fluoro-2-(((2R,7aS)-2-fluorotetra-hydro-1H-pyrrolizin-7a(5H)-yl)methoxy)pyrido[4,3-d]pyrimidin-7-yl)-5-ethynyl-6-fluoronaphthalen-2-ol or 4-(4-((1S,5R)-6-oxa-3-azabicyclo[3.2.1]octan-3-yl)-8-fluoro-2-(((2R,7aS)-2-fluorotetra-hydro-1H-pyrrolizin-7a(5H)-yl)methoxy)pyrido[4,3-d]pyrimidin-7-yl)-5-ethynyl-6-fluoronaphthalen-2-ol], the IC50 in test [1] was 3.43 nM; in test [2], 11.4 nM; in test [3], 29.1 nM; in [4], 19.4 nM; in test [5], 203 nM; in test [6], 1100 nM. The half-inhibitory concentration (IC50) in [7] is 60.6 nM; in test [8], 3720 nM; in test [9] it was 2990 nM.
In the case of `C#Cc1c(F)ccc2cc(O)cc(-c3ncc4c(N5CCOC[C@H](C)C5)nc(OC[C@@]56CCCN5C[C@H](F)C6)nc4c3F)c12` (single isomer, unassigned) [Compound 13B], the concentration for half-maximal inhibition (IC50) in [1] is 0.658 nM; in test [2], 0.76 nM; in [3] (Homo sapiens, 2 h), 1.1 nM; in test [4] (Homo sapiens, SW-620, 2 h), 5.82 nM; in test [5] (Homo sapiens, 144 h), 6.35 nM; in test [6] (Homo sapiens, ASPC1, 144 h), 43 nM. Moreover, the IC50 in test [7] (Homo sapiens, SW-620, 144 h) worked out at 5.48 nM; in test [8], 35.7 nM; in test [9], 14.2 nM.
Turning to `C#Cc1c(F)ccc2cc(O)cc(-c3ncc4c(N5CCCOCC5)nc(OCC56CCCN5CC(C)(F)C6)nc4c3F)c12` (stereo not drawn) [Compound 10, 5-ethynyl-6-fluoro-4-(8-fluoro-2-((2-fluoro-2-methyltetrahydro-1H-pyrrolizin-7a(5H)-yl)methoxy)-4-(1,4-oxazepan-4-yl)pyrido[4,3-d]pyrimidin-7-yl)naphthalen-2-ol], the IC50 in test [1] came out at 1.28 nM; in test [2], 2.05 nM; in [3] (Homo sapiens, 2 h), 6.71 nM; in test [4] (Homo sapiens, SW-620, 2 h), 10.6 nM; in [5] (Homo sapiens, 144 h), 26.2 nM; in test [6] (Homo sapiens, ASPC1, 144 h) it was 228 nM. The concentration for half-maximal inhibition (IC50) in [7] (Homo sapiens, SW-620, 144 h) came to 10.5 nM; in [8], 40.6 nM; in test [9], 62.1 nM.
For the molecule `C#Cc1c(F)ccc2cc(O)cc(-c3ncc4c(N5CCCOCC5)nc(OCC56CCCN5C[C@@](C)(F)C6)nc4c3F)c12` (single isomer, unassigned) [Compound 32A], the IC50 in test [1] was determined as 1.37 nM; in [2], 2.66 nM; in test [3] (Homo sapiens, 2 h), 10.4 nM; in [4] (Homo sapiens, SW-620, 2 h) it was 30 nM; in test [5] (Homo sapiens, 144 h) it was 20.6 nM; in test [6] (Homo sapiens, ASPC1, 144 h), 150 nM. The IC50 was found to be 28.6 nM in test [7] (Homo sapiens, SW-620, 144 h); 62.6 nM in test [8]; 70.4 nM in test [9].
Regarding `C#Cc1c(F)ccc2cc(O)cc(-c3ncc4c(N5CCOC[C@@H](F)C5)nc(OC[C@@]56CCCN5C[C@H](F)C6)nc4c3F)c12` (single isomer, unassigned) [Compound 12A], the half-inhibitory concentration (IC50) in test [1] worked out at 1.48 nM; in test [2], 2.26 nM; in test [3] (Homo sapiens, 2 h), 13 nM; in test [4] (Homo sapiens, SW-620, 2 h) it was 14 nM; in test [5] (Homo sapiens, 144 h), 24.2 nM; in test [6] (Homo sapiens, ASPC1, 144 h) it was 301 nM. The half-inhibitory concentration (IC50) was determined as 25.2 nM in test [7] (Homo sapiens, SW-620, 144 h); 184 nM in [8]; 105 nM in test [9].
With `C#Cc1c(F)ccc2cc(O)cc(-c3ncc4c(N5CCOC[C@@H](O)C5)nc(OC[C@@]56CCCN5C[C@H](F)C6)nc4c3F)c12` (single isomer, unassigned) [Compound 46B], the IC50 was 1.26 nM in [1]; 0.964 nM in test [2]; 15 nM in test [3] (Homo sapiens, 2 h); 45.7 nM in test [4] (Homo sapiens, SW-620, 2 h); 20.6 nM in test [5] (Homo sapiens, 144 h); 446 nM in test [6] (Homo sapiens, ASPC1, 144 h). The 50% inhibitory concentration (IC50) was determined as 50.1 nM in [7] (Homo sapiens, SW-620, 144 h); 50.9 nM in test [8]; 31.7 nM in test [9].
For the molecule `C#Cc1c(F)ccc2cc(O)cc(-c3ncc4c(N5CCCO[C@H](C)C5)nc(OC[C@@]56CCCN5C[C@H](F)C6)nc4c3F)c12` (single isomer, unassigned) [Compound 8B, trifluoroacetic acid], the IC50 in test [1] was found to be 1.53 nM; in [2] it was 1.71 nM; in test [3] (Homo sapiens, 2 h), 5.94 nM; in [4] (Homo sapiens, SW-620, 2 h) it was 8.91 nM; in test [5] (Homo sapiens, 144 h), 27.4 nM; in [6] (Homo sapiens, ASPC1, 144 h), 153 nM. Moreover, the half-maximal inhibitory concentration (IC50) in test [7] (Homo sapiens, SW-620, 144 h) came to 19.6 nM; in test [8] it was 16.3 nM; in test [9], 36.4 nM.
In the case of `C#Cc1c(F)ccc2cc(O)cc(-c3ncc4c(N5CCCO[C@@H](C)C5)nc(OC[C@@]56CCCN5C[C@H](F)C6)nc4c3F)c12` (single isomer, unassigned) [Compound 8A, trifluoroacetic acid], the 50% inhibitory concentration (IC50) is 2.49 nM in test [1]; 4.7 nM in test [2]; 21.7 nM in test [3] (Homo sapiens, 2 h); 37.6 nM in test [4] (Homo sapiens, SW-620, 2 h); 98.1 nM in test [5] (Homo sapiens, 144 h); 608 nM in [6] (Homo sapiens, ASPC1, 144 h). The half-maximal inhibitory concentration (IC50) was found to be 133 nM in test [7] (Homo sapiens, SW-620, 144 h); 170 nM in [8]; 255 nM in test [9].
